From patent publication US20220372585A1, “Sensors for Aromatic Compounds and Methods of Making and Using Same” (Washington University, priority 2021, published 2022)
“Also recorded” adds a separate entry of the source. Like-named read-outs stand apart in the source and are kept apart here.

Columns and labels:
[1] = test system: G415H TynA with wild-type FeaR; type: cell-based, E. coli MG1655; conditions: for Fmax / Fmin / n (Hill coefficient): G415H TynA + wild-type FeaR, pCX008, pCX015; for response: G415H
Description: (§1) Flow cytometry was performed as previously described. […] Cytometry data was gated by forward and side scatter.

[2] = test system: G494S TynA with A81T FeaR; type: cell-based, E. coli MG1655; conditions: for Fmax / Fmin / n (Hill coefficient): G494S TynA + A81T FeaR, pCX008, pCX014; for response: G494S*
Description: as §1

[3] = test system: G494S TynA with wild-type FeaR; type: cell-based, E. coli MG1655; conditions: for Fmax / Fmin / n (Hill coefficient): G494S TynA + wild-type FeaR, pCX008, pCX010
Description: as §1

G494S TynA and A81S FeaR = type: cell-based, E. coli MG1655; conditions: for Fmax / Fmin / n (Hill coefficient): G494S TynA + A81S FeaR, pCX008, pCX032
Description: as §1

[4] = test system: wild-type TynA with A81T FeaR; type: cell-based, E. coli MG1655; conditions: 24 h; for effect of the A81T FeaR mutation on the response of the sensor: wild-type TynA, 1 mM, FIG. 21
Description: as §1

TynA-FeaR system = experiment: microbe, parasite or virus in culture; conditions: for EC50 / fold induction at 1250 µM: Escherichia coli; for EC50: read-out: KA (half maximal constant); for fold induction at 1250 µM: read-out: fold induction of the reporter; for Fmax / Fmin / n (Hill coefficient): wild-type TynA and FeaR, pCX008, pHJY022
Description: To develop sensors for aromatic amines, the TynA-FeaR system was first characterized in EcN. A sensor plasmid was constructed, which consisted of constitutively expressed TynA and FeaR from E. coli MG1655, and a reporter plasmid, which consisted of GFP under the control of PtynA (see e.g., FIG. 3B). […] Next, the sensitivity and selectivity to different ligands was characterized.
For fluorescence-based quantification, single colonies were transferred to 5 mL LB medium (VWR, Radnor, Pa., USA) in 14 mL round bottom tubes and incubated overnight at 250 rpm and 37° C. Unless otherwise specified, experimental cultures were prepared by diluting overnight cultures 100× into 0.6 mL M9 minimal medium supplemented with 1 mM MgSO4, […]), and 2% w/v glycerol as well as the respective ligands (DA, PEA, Tyra, and Trypta) in 2 mL 96-deep well plates. Cultures were grown for 24 h at 37° C. and 250 rpm. After 5 h and 24 h of incubation, samples were obtained from the cultures for flow cytometry analysis.
Flow cytometry was performed as previously described. Culture samples were collected and diluted to a final OD600 of ˜0.005-0.01 in […] filtered phosphate-buffered saline supplemented with 2 mg/ml kanamycin in 96-well assay microplates (U-bottom, REF-353910 from BD Biosciences, San Jose, Calif., USA). The fluorescence of the samples was measured using a Millipore Guava EasyCyte High Throughput flow cytometer with a 488 nm excitation laser and 512/18 nm emission filter. Cytometry data was gated by forward and side scatter. FlowJo (TreeStar Inc.) was used to obtain the arithmetic mean of the fluorescence distribution. The averages of the arithmetic means were calculated from three biological replicates. The average fluorescence of the non-fluorescent wild-type cell was subtracted from each sample to obtain the final fluorescence (au) values (Equation 2). To obtain the relative fluorescence in FIG. 6A-FIG. 6C, fluorescence values for each variant were normalized to the fluorescence of the wild-type sensor using Equation 3.
The Hill equation (Equations 4 and 5) was used to fit lines to the fluorescence data. The model was fit to the experimentally collected data by minimizing the root mean square error (RMSE; Equation 6).

[5] = test system: wild-type TynA with A81P FeaR; experiment: microbe, parasite or virus in culture; type: cell-based, E. coli MG1655; conditions: for EC50: Escherichia coli, read-out: KA (half maximal constant), wild-type TynA + A81P FeaR
Description: as §1

[6] = test system: wild-type TynA and A81L FeaR; experiment: microbe, parasite or virus in culture; type: cell-based, E. coli MG1655; conditions: for EC50: Escherichia coli, read-out: KA (half maximal constant), wild-type TynA + A81L FeaR; for response: A81L FeaR
Description: as §1

[7] = test system: wild-type TynA with M83Y FeaR; experiment: PtynA-GFP reporter, wild-type TynA with M83Y FeaR (pCX068); type: cell-based, E. coli MG1655; conditions: pCX008, pCX068, FIG. 6D, 24 h
Description: as §1

[8] = test system: TynA-KP with FeaR-KA I109N; experiment: GFP fluorescence from PtynA-MG with TynA-KP and FeaR-KA I109N; type: cell-based, Klebsiella aerogenes; conditions: for induction of fluorescence: I109N variant, 0.5 mM, 24 h, FIG. 32
From the text: FIG. 32. […] Sensor system with PtynA-MG, TynA-KP and FeaR-KA was chosen as the wild type (WT) for further directed evolution. TynA-KP was employed to reduce the possible interference from DA during evolution processes. Values and error bars are the average and standard deviation of biological triplicate, respectively.
FIG. 33A-FIG. 33B. […] The expression of PtynA-MG was regulated by the TynA-KP with FeaR-KA I109N mutant. Points represent experimental data while lines represent the fitted curves. […] Values and error bars are the average and standard deviation of biological triplicate, respectively.

[9] = wild-type TynA + A81T FeaR, pCX008, pCX016, FIG. 22A
[10] = wild-type TynA + A81P FeaR, pCX008, pCX025, FIG. 25A, 5 h
[11] = wild-type TynA + A81P FeaR, pCX008, pCX025, FIG. 25B, 24 h
[12] = wild-type TynA + A81L FeaR, pCX008, pCX024, FIG. 5C, 24 h
[13] = wild-type TynA + A81L FeaR, pCX008, pCX024, FIG. 24, 5 h

NCCc1ccccc1 [Phenylethylamine, phenylethylamine]
Fmax ([1]; FIG. 4D, 24 h): 84
Fmin ([1]; FIG. 4D, 24 h): 0
n (Hill coefficient) ([1]; FIG. 4D, 24 h): 0.6
Fmax ([1]; FIG. 17B, 5 h): 118
Fmin ([1]; FIG. 17B, 5 h): 0
n (Hill coefficient) ([1]; FIG. 17B, 5 h): 0.4
Fmax ([2]; FIG. 4C, 22B, 24 h): 790
Fmin ([2]; FIG. 4C, 22B, 24 h): 5.4
n (Hill coefficient) ([2]; FIG. 4C, 22B, 24 h): 1.4
Fmax ([2]; FIG. 17A, 5 h): 9280
Fmin ([2]; FIG. 17A, 5 h): 1.1
n (Hill coefficient) ([2]; FIG. 17A, 5 h): 1.2
fold induction ([2]; G494S* double mutant sensor): 140 fold
Fmax ([3]; FIG. 18A, 5 h): 18
Fmin ([3]; FIG. 18A, 5 h): 0.8
n (Hill coefficient) ([3]; FIG. 18A, 5 h): 36
Fmax ([3]; FIG. 18B, 22B, 24 h): 4012
Fmin ([3]; FIG. 18B, 22B, 24 h): 3.4
n (Hill coefficient) ([3]; FIG. 18B, 22B, 24 h): 1.3
fold induction ([3]; G494S single mutant sensor): 50 fold
Fmax (G494S TynA and A81S FeaR; FIG. 23A, 5 h): 462
Fmin (G494S TynA and A81S FeaR; FIG. 23A, 5 h): 3.4
n (Hill coefficient) (G494S TynA and A81S FeaR; FIG. 23A, 5 h): 1.2
Fmax (G494S TynA and A81S FeaR; FIG. 25B, 22B [sic], 24 h): 475
Fmin (G494S TynA and A81S FeaR; FIG. 25B, 22B [sic], 24 h): 5.9
n (Hill coefficient) (G494S TynA and A81S FeaR; FIG. 25B, 22B [sic], 24 h): 1.5
Fmax [4, 9]: 1010
Fmin [4, 9]: 18
n (Hill coefficient) [4, 9]: 4.3
effect of the A81T FeaR mutation on the response of the sensor [4]: insignificant impact
EC50 (TynA-FeaR system; 5 h): 42 µM
EC50 (TynA-FeaR system; 24 h): 87 µM
fold induction at 1250 µM (TynA-FeaR system): > 1500
Fmax (TynA-FeaR system; FIG. 3D, 24 h induction): 1430
Fmin (TynA-FeaR system; FIG. 3D, 24 h induction): 0
n (Hill coefficient) (TynA-FeaR system; FIG. 3D, 24 h induction): 3.9
Fmax (TynA-FeaR system; FIG. 14, 5 h induction): 315
Fmin (TynA-FeaR system; FIG. 14, 5 h induction): 10.4
n (Hill coefficient) (TynA-FeaR system; FIG. 14, 5 h induction): 2
EC50 ([5]; 5 h, pCX008, pCX025, FIG. 25A, 5 h): 14 µM
EC50 ([5]; 24 h, pCX008, pCX025, FIG. 25B, 24 h): 50 µM
Fmax [5, 10]: 14
Fmin [5, 10]: 0.4
n (Hill coefficient) [5, 10]: 8.4
Fmax [5, 11]: 112
Fmin [5, 11]: 1.1
KA (half maximal constant) [5, 11]: 0.052 mM
n (Hill coefficient) [5, 11]: 20.3
fold induction ([6]; A81L sensor, FIG. 5C): 580 fold
EC50 ([6]; 5 h, pCX008, pCX024, FIG. 24, 5 h): 74 µM
EC50 ([6]; 24 h, pCX008, pCX024, FIG. 5C, 24 h): 140 µM
Fmax [6, 12]: 585
Fmin [6, 12]: 4.8
KA (half maximal constant) [6, 12]: 0.137 mM
n (Hill coefficient) [6, 12]: 2.7
Fmax [6, 13]: 289
Fmin [6, 13]: 5.1
n (Hill coefficient) [6, 13]: 2.6
Fmax [7]: 1004
Fmin [7]: 5.8
n (Hill coefficient) [7]: 2.1
induction of fluorescence [8]: not

NCCc1c[nH]c2ccccc12 [Tryptamine, tryptamine]
response ([1]; 5 h, FIG. 17B): lack of response
response ([1]; 24 h, FIG. 4D): lack of response; also recorded: minimal response
response ([2]; 5 h, FIG. 17A): lack of response
response ([2]; 24 h, FIG. 4C): lack of response
response ([3]; G494S TynA, wild-type FeaR, 5 h and 24 h, FIG. 18A-B): lack of response
response (G494S TynA and A81S FeaR; G494S TynA and A81S FeaR, 5 h and 24 h, FIG. 23A-B): lack of response
effect of the A81T FeaR mutation on the response of the sensor [4]: significantly reduced
EC50 (TynA-FeaR system; 5 h): 45 µM
EC50 (TynA-FeaR system; 24 h): 85 µM
fold induction at 1250 µM (TynA-FeaR system): ~280
Fmax (TynA-FeaR system; FIG. 3D, 24 h induction): 268
Fmin (TynA-FeaR system; FIG. 3D, 24 h induction): 1.3
n (Hill coefficient) (TynA-FeaR system; FIG. 3D, 24 h induction): 4.3
Fmax (TynA-FeaR system; FIG. 14, 5 h induction): 57
Fmin (TynA-FeaR system; FIG. 14, 5 h induction): 5.9
n (Hill coefficient) (TynA-FeaR system; FIG. 14, 5 h induction): 3.1
response ([5]; A81P FeaR, 5 h and 24 h, FIG. 25A-B): lack of response
response ([6]; 5 h, FIG. 24): lack of response
response ([6]; 24 h, FIG. 5C): lack of response
response ([8]; FeaR-KA I109N, 5 h and 24 h, FIG. 33A-B): lack of response
induction of fluorescence [8]: induction of fluorescence
